Test results from US11560371B2, “Cereblon binding compounds, compositions thereof, and methods of treatment therewith” (Celgene Corporation, priority 2020, dated 2023).

Target: T1, AR (Homo sapiens, UniProt P10275)
T1 construct: endogenous in cells; host or cells: VCaP cells
T1 sequence (P10275 1-920): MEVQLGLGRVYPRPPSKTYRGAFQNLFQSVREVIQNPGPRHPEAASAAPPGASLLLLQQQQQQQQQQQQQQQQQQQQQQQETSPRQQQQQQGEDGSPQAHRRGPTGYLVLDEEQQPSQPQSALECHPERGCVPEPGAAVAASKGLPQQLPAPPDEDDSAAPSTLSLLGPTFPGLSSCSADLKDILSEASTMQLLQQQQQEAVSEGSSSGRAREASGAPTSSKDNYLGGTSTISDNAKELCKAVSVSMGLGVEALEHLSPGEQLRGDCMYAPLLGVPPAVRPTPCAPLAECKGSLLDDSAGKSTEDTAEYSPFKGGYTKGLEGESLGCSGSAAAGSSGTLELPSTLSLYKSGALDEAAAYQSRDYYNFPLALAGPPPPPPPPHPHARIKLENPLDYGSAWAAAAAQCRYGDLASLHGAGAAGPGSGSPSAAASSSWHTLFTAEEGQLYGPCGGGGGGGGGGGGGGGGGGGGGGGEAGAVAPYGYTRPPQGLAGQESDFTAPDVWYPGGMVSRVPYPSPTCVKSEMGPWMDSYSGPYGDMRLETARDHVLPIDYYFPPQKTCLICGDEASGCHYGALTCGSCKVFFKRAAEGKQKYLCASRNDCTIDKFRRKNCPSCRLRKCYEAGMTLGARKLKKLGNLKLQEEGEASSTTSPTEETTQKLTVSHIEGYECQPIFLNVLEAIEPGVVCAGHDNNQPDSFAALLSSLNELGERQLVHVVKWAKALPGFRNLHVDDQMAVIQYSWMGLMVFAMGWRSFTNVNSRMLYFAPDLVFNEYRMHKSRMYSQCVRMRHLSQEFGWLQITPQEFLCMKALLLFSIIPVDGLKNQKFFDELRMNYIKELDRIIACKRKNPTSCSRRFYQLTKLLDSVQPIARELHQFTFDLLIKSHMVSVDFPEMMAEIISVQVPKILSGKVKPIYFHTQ
Assay: VCAP AR Degradation Assay
Type: cell-based
Settings: VCaP cells, 24 h, AR ELISA; for DC50: concentration of compound when AR level = 50% of DMSO control (50% AR degradation); for Y: lowest measured AR level normalized to DMSO control (AR degradation efficiency)
Experimental: VCAP AR Degradation Assay. Test compounds were pre-dispensed into a Corning CellBind 96-well clear bottom plate (Cat #3300) using an acoustic dispenser to make a 10-point concentration series at 1:3 dilution for each compound. The final top concentration of each compound was 5 μM. DMSO at a final concentration of 0.1% was used as a control. VCaP cells cultured in DMEM with 8% fetal bovine serum (FBS) were seeded at 50K cells per well in a 200 μL volume into the compound plate and incubated at 37° C. in a CO2 incubator for 24 h. The medium was carefully removed from the cells and the plate was placed on ice. […] ice-cold 1× cell lysis buffer from Cell Signaling Technologies (Cat #9803) was added to each well of the cells and the plate was incubated at 4° C. on a shaker for 1 h. Fifteen μL of cell lysate was used for AR ELISA detection using a PathScan Total Sandwich AR ELISA kit (Cell Signaling Technology, Cat #12580). AR levels in compound-treated wells were normalized to that of DMSO control and expressed as percent of control (PoC) (y). A Four Parameter Logistic Model (Sigmoidal Dose-Response Model) was used to determine the compound's DC50, and EC50, using the following equation: y=(A+((B−A)/(1+((C/x)^D)))) • A=YMin (lowest AR level normalized to DMSO control in response to compound treatment, as determined by curve fit) • B=YMax (maximum AR level as determined by curve fit) • C=EC50 • D=Hill Slope • x=compound concentration • EC50=the concentration of compound when y=[…] • DC50=the concentration of the compound when y=50% of DMSO control (50% AR degradation) • y=AR protein level normalized to DMSO control
The lowest measured AR level normalized to DMSO control in response to compound treatment, termed Y value, was used to characterize the compound-mediated AR degradation efficiency.

Compound | DC50 [nM] | Y
Cn1nc(N2CCC(=O)NC2=O)c2cccc(NC(=O)CN3CCN(CCCO[C@H]4CC[C@H](N5C(=S)N(c6cnc(C#N)c(C(F)(F)F)c6)C(=O)C5(C)C)CC4)C[C@@H]3C(F)(F)F)c21 [Cmpd 24, 2-((R)-4-(3-(((trans)-4-(3-(6-cyano-5-(trifluoromethyl)pyridin-3-yl)-5,5-dimethyl-4-oxo-2-thioxoimidazolidin-1-yl)cyclohexyl)oxy)propyl)-2-(trifluoromethyl)piperazin-1-yl)-N-(3-(2,4-dioxotetrahydropyrimidin-1(2H)-yl)-1-methyl-1H-indazol-7-yl)acetamide] | ≤ 2 | * (0<Y≤20%)
C[C@@H]1C[C@@H](CCOC2CCC(N3C(=S)N(c4cnc(C#N)c(C(F)(F)F)c4)C(=O)C3(C)C)CC2)C[C@H](C)N1CC(=O)Nc1cccc2c(N3CCC(=O)NC3=O)nn(C)c12 (stereo partly drawn) [Cmpd 25, 2-((2R,4s,6S)-4-(2-(((trans)-4-(3-(6-Cyano-5-(trifluoromethyl)pyridin-3-yl)-5,5-dimethyl-4-oxo-2-thioxoimidazolidin-1-yl)cyclohexyl)oxy)ethyl)-2,6-dimethylpiperidin-1-yl)-N-(3-(2,4-dioxotetrahydropyrimidin-1(2H)-yl)-1-methyl-1H-indazol-7-yl)acetamide] | ≤ 2 | * (0<Y≤20%)
Cn1nc(N2CCC(=O)NC2=O)c2cccc(NC(=O)CN3CCN(CCCO[C@H]4CC[C@H](N5C(=S)N(c6ccc(C#N)c(C(F)(F)F)c6)C(=O)C5(C)C)CC4)C[C@@H]3C(F)(F)F)c21 [Cmpd 26, 2-((R)-4-(3-(((trans)-4-(3-(4-Cyano-3-(trifluoromethyl)phenyl)-5,5-dimethyl-4-oxo-2-thioxoimidazolidin-1-yl)cyclohexyl)oxy)propyl)-2-(trifluoromethyl)piperazin-1-yl)-N-(3-(2,4-dioxotetrahydropyrimidin-1(2H)-yl)-1-methyl-1H-indazol-7-yl)acetamide] | 2 to 10 | * (0<Y≤20%)
Cn1nc(N2CCC(=O)NC2=O)c2cccc(NC(=O)CN3CCN(CCO[C@H]4CC[C@H](N5C(=S)N(c6cnc(C#N)c(C(F)(F)F)c6)C(=O)C5(C)C)CC4)C[C@@H]3C(F)(F)F)c21 [Cmpd 27, 2-((R)-4-(2-(((trans)-4-(3-(6-Cyano-5-(trifluoromethyl)pyridin-3-yl)-5,5-dimethyl-4-oxo-2-thioxoimidazolidin-1-yl)cyclohexyl)oxy)ethyl)-2-(trifluoromethyl)piperazin-1-yl)-N-(3-(2,4-dioxotetrahydropyrimidin-1(2H)-yl)-1-methyl-1H-indazol-7-yl)acetamide] | ≤ 2 | ** (20%<Y≤%)
C[C@@H]1C[C@H](OCCC[C@H]2CC[C@H](N3C(=S)N(c4ccc(C#N)c(C(F)(F)F)c4)C(=O)C3(C)C)CC2)C[C@H](C)N1CC(=O)Nc1cccc2c(N3CCC(=O)NC3=O)nn(C)c12 [Cmpd 29, 2-((2R,4r,6S)-4-(3-((trans)-4-(3-(4-Cyano-3-(trifluoromethyl)phenyl)-5,5-dimethyl-4-oxo-2-thioxoimidazolidin-1-yl)cyclohexyl)propoxy)-2,6-dimethylpiperidin-1-yl)-N-(3-(2,4-dioxotetrahydropyrimidin-1(2H)-yl)-1-methyl-1H-indazol-7-yl)acetamide] | 10 to 100 | * (0<Y≤20%)
C[C@@H]1C[C@H](OCC[C@H]2CC[C@H](N3C(=S)N(c4ccc(C#N)c(C(F)(F)F)c4)C(=O)C3(C)C)CC2)C[C@H](C)N1CC(=O)Nc1cccc2c(N3CCC(=O)NC3=O)nn(C)c12 [Cmpd 31, 2-((2R,4r,6S)-4-(2-((trans)-4-(3-(4-Cyano-3-(trifluoromethyl)phenyl)-5,5-dimethyl-4-oxo-2-thioxoimidazolidin-1-yl)cyclohexyl)ethoxy)-2,6-dimethylpiperidin-1-yl)-N-(3-(2,4-dioxotetrahydropyrimidin-1(2H)-yl)-1-methyl-1H-indazol-7-yl)acetamide] | 2 to 10 | ** (20%<Y≤%)
C[C@@H]1C[C@H](OCCO[C@H]2CC[C@H](N3C(=S)N(c4ccc(C#N)c(C(F)(F)F)c4)C(=O)C3(C)C)CC2)C[C@H](C)N1CC(=O)Nc1cccc2c(N3CCC(=O)NC3=O)nn(C)c12 [Cmpd 33, 2-((2R,4r,6S)-4-(2-(((trans)-4-(3-(4-Cyano-3-(trifluoromethyl)phenyl)-5,5-dimethyl-4-oxo-2-thioxoimidazolidin-1-yl)cyclohexyl)oxy)ethoxy)-2,6-dimethylpiperidin-1-yl)-N-(3-(2,4-dioxotetrahydropyrimidin-1(2H)-yl)-1-methyl-1H-indazol-7-yl)acetamide] | 2 to 10 | ** (20%<Y≤%)

Now from value to compound:

DC50 [nM] | Y | Compound
≤ 2 | * (0<Y≤20%) | C[C@@H]1C[C@H](CCO[C@H]2CC[C@H](N3C(=S)N(c4cnc(C#N)c(C(F)(F)F)c4)C(=O)C3(C)C)CC2)C[C@H](C)N1CC(=O)Nc1cccc2c(N3CCC(=O)NC3=O)nn(C)c12 [Cmpd 28, 2-((2R,4r,6S)-4-(2-(((trans)-4-(3-(6-Cyano-5-(trifluoromethyl)pyridin-3-yl)-5,5-dimethyl-4-oxo-2-thioxoimidazolidin-1-yl)cyclohexyl)oxy)ethyl)-2,6-dimethylpiperidin-1-yl)-N-(3-(2,4-dioxotetrahydropyrimidin-1(2H)-yl)-1-methyl-1H-indazol-7-yl)acetamide]
2 to 10 | * (0<Y≤20%) | C[C@@H]1C[C@H](OCCC[C@H]2CC[C@H](N3C(=S)N(c4cnc(C#N)c(C(F)(F)F)c4)C(=O)C3(C)C)CC2)C[C@H](C)N1CC(=O)Nc1cccc2c(N3CCC(=O)NC3=O)nn(C)c12 [Cmpd 30, 2-((2R,4r,6S)-4-(3-((trans)-4-(3-(6-Cyano-5-(trifluoromethyl)pyridin-3-yl)-5,5-dimethyl-4-oxo-2-thioxoimidazolidin-1-yl)cyclohexyl)propoxy)-2,6-dimethylpiperidin-1-yl)-N-(3-(2,4-dioxotetrahydropyrimidin-1(2H)-yl)-1-methyl-1H-indazol-7-yl)acetamide]
2 to 10 | * (0<Y≤20%) | C[C@@H]1C[C@H](OCC[C@H]2CC[C@H](N3C(=S)N(c4cnc(C#N)c(C(F)(F)F)c4)C(=O)C3(C)C)CC2)C[C@H](C)N1CC(=O)Nc1cccc2c(N3CCC(=O)NC3=O)nn(C)c12 [Cmpd 32, 2-((2R,4r,6S)-4-(2-((trans)-4-(3-(6-Cyano-5-(trifluoromethyl)pyridin-3-yl)-5,5-dimethyl-4-oxo-2-thioxoimidazolidin-1-yl)cyclohexyl)ethoxy)-2,6-dimethylpiperidin-1-yl)-N-(3-(2,4-dioxotetrahydropyrimidin-1(2H)-yl)-1-methyl-1H-indazol-7-yl)acetamide]
≤ 2 | ** (20%<Y≤%) | C[C@@H]1C[C@H](OCCO[C@H]2CC[C@H](N3C(=S)N(c4cnc(C#N)c(C(F)(F)F)c4)C(=O)C3(C)C)CC2)C[C@H](C)N1CC(=O)Nc1cccc2c(N3CCC(=O)NC3=O)nn(C)c12 [Cmpd 34, 2-((2R,4r,6S)-4-(2-(((trans)-4-(3-(6-Cyano-5-(trifluoromethyl)pyridin-3-yl)-5,5-dimethyl-4-oxo-2-thioxoimidazolidin-1-yl)cyclohexyl)oxy)ethoxy)-2,6-dimethylpiperidin-1-yl)-N-(3-(2,4-dioxotetrahydropyrimidin-1(2H)-yl)-1-methyl-1H-indazol-7-yl)acetamide]
